Results on two molecules are retold here after US20180273598A1, “ADHD MARKER, APPLICATION THEREOF AND KIT” (WENZHOU KANGNING HOSPITAL CO., LTD., priority 2017, published 2018).

Experiment [1] concerns wild larvae zebrafish. In words: Behavior tracking of wild-type zebrafish larvae treated with GHSR-1a antagonist. The settings on record: wild-type (AB) embryos treated from 6 hpf to 3 dpf; 0.08 uM/L YIL781 (FIG. 4). Type of experiment: in vivo. As for the experimental part:
Zebrafish embryos (AB) were treated with different concentrations of YIL781 (0.08 uM, 0.4 uM, 2 uM, 10 uM, 50 uM) from 6 hpf to 3 dpf, and the behavior was detected by viewpoint behavioral recorder. The concrete scheme was as follows: [table]

In experiment [2] the test system is ghrelin mutant zebrafish. Briefly: Behavior tracking of ghrelin mutant zebrafish larvae treated with methylphenidate. Type of experiment: in vivo. The note with it: ghrelin-/- embryos, 10 uM for 1 h at 3 dpf (FIG. 6). The method, then: The embryos produced by ghrelin+/+, ghrelin−/− zebrafish intercross were treated with Methylphenidate at 72 hpf for 1 h. Pick a single hatched zebrafish larvae into a 96-well plate, behavior was tested as following table. After test, the genotype of the zebrafish larvae was identified by PCR and enzyme digestion.
The ghrelin^−/− embryos were treated with 10 uM methylphenidate for 1 h at 3 dpf, and the movement distance was measured by behavior recorder.

With `Cc1nc2ccc(Oc3ccc(F)cc3)cc2c(=O)n1C[C@H]1CCCN(C(C)C)C1` [YIL781], the “activity phenotype of normal zebrafish larvae (behavioral recorder)” value in experiment [1] is “induced normal zebrafish to produce a hyperactivity phenotype”.
As to `COC(=O)C(c1ccccc1)C1CCCCN1` (stereo not drawn) [methylphenidate], in experiment [2], the “movement distance of ghrelin mutant after treatment” value is “decreased its movement distance” and the “movement distance of treated ghrelin mutant compared with the control group” value is “no significantly different with the control group”.
